Results on five compounds are retold here after publication PMC7104723 (Cell Research, 2020).

One assay concerns the target SARS-CoV-2 S protein (Severe acute respiratory syndrome coronavirus 2, UniProt P0DTC2). Description: cell-based. It is filed as cell-based.
For the next assay, the system named is SARS-CoV PsV. To be noted: 72 h.
A further assay relates to SARS-CoV-2 PsV. The settings on record: PsV, 72 h.
The subject of the next assay is HCoV-NL63 PsV. To be noted: 72 h.
The next assay deals with MERS-CoV PsV. The settings on record: 72 h.
The next assay concerns live SARS-CoV-2. To be noted: live, 72 h.
The target of a further assay is SARS-CoV S protein (Severe acute respiratory syndrome coronavirus, UniProt P59594). Briefly: cell-based. It counts as cell-based.
Another assay has as its system HCoV-229E PsV. The settings on record: 72 h.
The subject of a further assay is live HCoV-OC43. To be noted: 1 h.
The target of the next assay is MERS-CoV S protein (Middle East respiratory syndrome-related coronavirus, UniProt K9N5Q8). Briefly: cell-based. It is filed as cell-based.
Another assay deals with HCoV-OC43 S protein (Human coronavirus OC43, UniProt P36334). Description: cell-based. It counts as cell-based.
HCoV-OC43 S protein, sequence (P36334 14-1353 limits assumed): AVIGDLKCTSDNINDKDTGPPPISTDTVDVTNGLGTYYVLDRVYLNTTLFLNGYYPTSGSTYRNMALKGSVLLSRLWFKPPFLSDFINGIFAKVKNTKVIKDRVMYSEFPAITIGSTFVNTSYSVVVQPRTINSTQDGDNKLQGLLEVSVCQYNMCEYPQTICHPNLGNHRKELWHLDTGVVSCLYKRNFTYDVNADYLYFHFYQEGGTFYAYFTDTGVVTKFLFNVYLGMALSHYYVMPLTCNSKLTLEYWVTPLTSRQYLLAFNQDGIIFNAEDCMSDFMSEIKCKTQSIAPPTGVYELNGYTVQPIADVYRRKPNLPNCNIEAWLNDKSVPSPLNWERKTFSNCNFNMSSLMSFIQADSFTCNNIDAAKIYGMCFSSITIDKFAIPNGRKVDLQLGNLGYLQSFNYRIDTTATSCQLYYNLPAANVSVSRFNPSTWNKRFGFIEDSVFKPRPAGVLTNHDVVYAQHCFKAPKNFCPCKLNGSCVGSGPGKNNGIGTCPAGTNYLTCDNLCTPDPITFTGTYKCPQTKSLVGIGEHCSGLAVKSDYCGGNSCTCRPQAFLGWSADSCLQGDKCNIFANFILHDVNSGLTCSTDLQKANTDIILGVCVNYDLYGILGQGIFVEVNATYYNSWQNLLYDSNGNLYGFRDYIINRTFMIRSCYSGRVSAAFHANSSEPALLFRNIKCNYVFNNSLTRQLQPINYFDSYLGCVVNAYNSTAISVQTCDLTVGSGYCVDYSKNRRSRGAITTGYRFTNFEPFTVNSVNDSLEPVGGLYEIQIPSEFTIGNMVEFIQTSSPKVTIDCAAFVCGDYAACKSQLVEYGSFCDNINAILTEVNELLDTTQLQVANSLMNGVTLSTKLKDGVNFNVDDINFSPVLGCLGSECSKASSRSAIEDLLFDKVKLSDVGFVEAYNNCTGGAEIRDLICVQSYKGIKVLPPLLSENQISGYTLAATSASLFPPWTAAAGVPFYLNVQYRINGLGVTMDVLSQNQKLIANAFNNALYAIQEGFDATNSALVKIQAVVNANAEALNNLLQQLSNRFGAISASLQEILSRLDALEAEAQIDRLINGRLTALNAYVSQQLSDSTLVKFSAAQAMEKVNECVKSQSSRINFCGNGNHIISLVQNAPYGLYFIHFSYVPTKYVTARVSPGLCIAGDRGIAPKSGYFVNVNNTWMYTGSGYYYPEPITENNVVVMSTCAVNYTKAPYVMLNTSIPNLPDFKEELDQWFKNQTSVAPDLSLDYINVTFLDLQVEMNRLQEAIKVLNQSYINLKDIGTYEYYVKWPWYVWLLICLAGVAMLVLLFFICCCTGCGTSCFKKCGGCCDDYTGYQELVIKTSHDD
The next assay has as its system WIV1 PsV. The settings on record: 72 h.
For another assay, the system named is live HCoV-NL63. The settings on record: 1 h.
In a further assay the target is HCoV-229E S protein (Human coronavirus 229E, UniProt P15423). Description: cell-based. It is filed as cell-based.
HCoV-229E S protein, sequence (P15423 16-1173 limits assumed): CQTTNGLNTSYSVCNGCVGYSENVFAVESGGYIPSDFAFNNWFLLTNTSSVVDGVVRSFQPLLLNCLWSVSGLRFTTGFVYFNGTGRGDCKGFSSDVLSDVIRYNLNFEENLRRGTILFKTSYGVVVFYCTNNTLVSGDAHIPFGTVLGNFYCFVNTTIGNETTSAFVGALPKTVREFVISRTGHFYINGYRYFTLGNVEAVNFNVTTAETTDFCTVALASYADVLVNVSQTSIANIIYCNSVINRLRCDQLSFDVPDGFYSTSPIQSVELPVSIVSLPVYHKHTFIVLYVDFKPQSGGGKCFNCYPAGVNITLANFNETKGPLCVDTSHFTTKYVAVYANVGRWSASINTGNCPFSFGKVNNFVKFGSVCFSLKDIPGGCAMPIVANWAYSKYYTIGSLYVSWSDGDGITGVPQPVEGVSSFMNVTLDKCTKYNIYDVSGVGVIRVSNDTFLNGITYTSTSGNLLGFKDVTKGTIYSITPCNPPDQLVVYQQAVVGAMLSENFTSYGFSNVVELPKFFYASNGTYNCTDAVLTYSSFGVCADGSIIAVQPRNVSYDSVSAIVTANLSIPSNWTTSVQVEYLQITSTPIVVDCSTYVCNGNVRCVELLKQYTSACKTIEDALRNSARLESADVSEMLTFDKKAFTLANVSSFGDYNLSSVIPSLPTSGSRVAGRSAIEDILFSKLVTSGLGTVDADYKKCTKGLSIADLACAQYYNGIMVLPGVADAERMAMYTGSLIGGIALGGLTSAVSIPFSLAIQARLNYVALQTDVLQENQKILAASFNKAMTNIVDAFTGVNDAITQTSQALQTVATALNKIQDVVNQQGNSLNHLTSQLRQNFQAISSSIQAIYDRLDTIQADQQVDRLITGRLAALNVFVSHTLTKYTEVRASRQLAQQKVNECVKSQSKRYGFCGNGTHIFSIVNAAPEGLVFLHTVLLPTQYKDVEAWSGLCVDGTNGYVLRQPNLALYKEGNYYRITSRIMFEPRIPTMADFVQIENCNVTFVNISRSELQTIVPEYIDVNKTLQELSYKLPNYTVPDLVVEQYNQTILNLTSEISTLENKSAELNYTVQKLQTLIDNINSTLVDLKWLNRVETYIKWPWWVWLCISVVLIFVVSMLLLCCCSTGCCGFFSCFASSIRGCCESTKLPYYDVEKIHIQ
The next assay has as its system live HCoV-229E. The settings on record: 1 h.
Another assay has as its system live MERS-CoV. The settings on record: 72 h.
The target in another assay is HCoV-NL63 S protein (Human coronavirus NL63, UniProt Q6Q1S2). Description: cell-based. It counts as cell-based.
HCoV-NL63 S protein, sequence (Q6Q1S2 19-1356 limits assumed): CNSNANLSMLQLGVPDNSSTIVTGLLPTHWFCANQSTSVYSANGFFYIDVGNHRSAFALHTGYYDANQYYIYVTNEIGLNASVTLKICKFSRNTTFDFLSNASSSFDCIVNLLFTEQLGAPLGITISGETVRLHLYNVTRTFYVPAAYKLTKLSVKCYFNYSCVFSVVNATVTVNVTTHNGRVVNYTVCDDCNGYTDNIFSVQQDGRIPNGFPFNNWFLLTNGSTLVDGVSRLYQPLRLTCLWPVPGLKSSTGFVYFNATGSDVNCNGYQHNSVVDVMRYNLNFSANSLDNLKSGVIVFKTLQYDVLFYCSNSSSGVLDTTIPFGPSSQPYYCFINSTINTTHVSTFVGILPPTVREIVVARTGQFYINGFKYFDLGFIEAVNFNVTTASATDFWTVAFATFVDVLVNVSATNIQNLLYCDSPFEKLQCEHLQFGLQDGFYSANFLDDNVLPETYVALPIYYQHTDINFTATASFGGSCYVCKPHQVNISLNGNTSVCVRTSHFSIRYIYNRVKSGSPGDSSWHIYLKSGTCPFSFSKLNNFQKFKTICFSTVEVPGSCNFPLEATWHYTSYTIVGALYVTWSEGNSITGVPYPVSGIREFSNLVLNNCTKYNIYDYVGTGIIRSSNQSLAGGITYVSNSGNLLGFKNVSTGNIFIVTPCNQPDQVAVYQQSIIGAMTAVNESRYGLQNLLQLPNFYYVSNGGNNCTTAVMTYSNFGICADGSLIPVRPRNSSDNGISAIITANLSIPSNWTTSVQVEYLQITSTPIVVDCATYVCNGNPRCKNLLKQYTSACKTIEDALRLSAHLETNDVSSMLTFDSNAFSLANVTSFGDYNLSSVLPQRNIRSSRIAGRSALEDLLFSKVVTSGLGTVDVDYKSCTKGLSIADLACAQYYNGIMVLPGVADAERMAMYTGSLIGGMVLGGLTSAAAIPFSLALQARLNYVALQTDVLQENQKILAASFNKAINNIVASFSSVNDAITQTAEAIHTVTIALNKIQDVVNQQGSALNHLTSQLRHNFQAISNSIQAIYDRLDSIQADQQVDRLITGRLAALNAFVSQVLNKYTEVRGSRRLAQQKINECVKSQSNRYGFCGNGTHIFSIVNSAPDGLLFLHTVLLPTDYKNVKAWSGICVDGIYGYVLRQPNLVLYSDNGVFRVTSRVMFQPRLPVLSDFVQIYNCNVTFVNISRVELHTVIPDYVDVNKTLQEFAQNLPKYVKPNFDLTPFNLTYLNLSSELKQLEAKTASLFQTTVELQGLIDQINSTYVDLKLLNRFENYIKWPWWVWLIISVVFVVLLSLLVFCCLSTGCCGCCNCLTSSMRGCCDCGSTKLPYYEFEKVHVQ
A further assay relates to Rs3367 PsV. To be noted: 72 h.
Another assay concerns HCoV-OC43 PsV. To be noted: 72 h.
For another assay, the system named is SHC014 S protein. It is filed as cell-based, SL-CoV RsSHC014.
A further assay deals with Rs3367 S protein. It is filed as cell-based, SL-CoV Rs3367.
The test system of another assay is WIV1 S protein. It counts as cell-based, SL-CoV WIV1.

Several values for one entry are separate records, joined by “and”; a condition that tells them apart may be missing. Equal values may be shown once. Non-standard residues stand in square brackets, D forms with d. Residues, ends and D or L forms follow the SMILES beside them. *: point of attachment. X1 = CC(C)CCC[C@@H](C)[C@H]1CC[C@H]2[C@@H]3CC=C4C[C@@H](OC(=O)C*)CC[C@]4(C)[C@H]3CC[C@]12C; Palmitoyl = CCCCCCCCCCCCCCCC(=O)*; PEG4 = NCCOCCOCCOCCOCCC(=O)O

Regarding `CC[C@H](C)[C@H](NC(=O)[C@H](C)NC(=O)[C@H](CCC(=O)O)NC(=O)[C@H](CCC(=O)O)NC(=O)[C@H](CC(C)C)NC(=O)[C@H](CCCCN)NC(=O)[C@H](CCCCN)NC(=O)[C@H](CCSC)NC(=O)[C@H](CCC(=O)O)NC(=O)[C@H](Cc1ccc(O)cc1)NC(=O)[C@H](CCC(=O)O)NC(=O)[C@H](CC(C)C)NC(=O)[C@H](CC(=O)O)NC(=O)[C@H](CC(C)C)NC(=O)[C@H](Cc1ccccc1)NC(=O)[C@@H](NC(=O)[C@@H](NC(=O)[C@H](CC(N)=O)NC(=O)[C@@H](NC(=O)[C@H](CCC(N)=O)NC(=O)[C@H](CC(=O)O)NC(=O)[C@H](CC(C)C)NC(=O)[C@@H](N)CO)[C@@H](C)CC)C(C)C)[C@@H](C)O)C(=O)N[C@@H](CCCCN)C(=O)N[C@@H](CCCCN)C(=O)N[C@@H](CC(C)C)C(=O)N[C@@H](CCC(=O)O)C(=O)N[C@@H](CCC(=O)O)C(=O)N[C@@H](CO)C(=O)N[C@@H](Cc1ccc(O)cc1)C(=O)N[C@H](C(=O)N[C@@H](CC(=O)O)C(=O)N[C@@H](CC(C)C)C(=O)N[C@@H](CCCCN)C(=O)N[C@@H](CCC(=O)O)C(=O)N[C@@H](CC(C)C)C(=O)O)[C@@H](C)CC` [EK1], the IC50 against SARS-CoV-2 S protein (IC50, SARS-CoV-2 S-mediated cell–cell fusion) was 287 nM and 315 nM; with SARS-CoV PsV, 3240 nM; in the assay on SARS-CoV-2 PsV, 2380 nM; in the assay with HCoV-NL63 PsV, 7670 nM; in the assay on MERS-CoV PsV, 632 nM; in the assay with live SARS-CoV-2, 2470 nM. The IC50 came to 409 nM at SARS-CoV S protein; 3960 nM in the assay on HCoV-229E PsV; 1550 nM in the assay on live HCoV-OC43; 239 nM at MERS-CoV S protein; 788 nM against HCoV-OC43 S protein; 5420 nM in the assay on WIV1 PsV. The IC50 in the assay with live HCoV-NL63 came out at 3690 nM; against HCoV-229E S protein, 207 nM; in the assay on live HCoV-229E, 4380 nM; in the assay with live MERS-CoV it was 802 nM; against HCoV-NL63 S protein, 751 nM; with Rs3367 PsV it was 6010 nM. This compound also came in with an IC50 in the assay on HCoV-OC43 PsV of 1400 nM.
On to `CC[C@H](C)[C@H](NC(=O)[C@H](C)NC(=O)[C@H](CCC(=O)O)NC(=O)[C@H](CCC(=O)O)NC(=O)[C@H](CC(C)C)NC(=O)[C@H](CCCCN)NC(=O)[C@H](CCCCN)NC(=O)[C@H](CCSC)NC(=O)[C@H](CCC(=O)O)NC(=O)[C@H](Cc1ccc(O)cc1)NC(=O)[C@H](CCC(=O)O)NC(=O)[C@H](CC(C)C)NC(=O)[C@H](CC(=O)O)NC(=O)[C@H](CC(C)C)NC(=O)[C@H](Cc1ccccc1)NC(=O)[C@@H](NC(=O)[C@@H](NC(=O)[C@H](CC(N)=O)NC(=O)[C@@H](NC(=O)[C@H](CCC(N)=O)NC(=O)[C@H](CC(=O)O)NC(=O)[C@H](CC(C)C)NC(=O)[C@@H](N)CO)[C@@H](C)CC)C(C)C)[C@@H](C)O)C(=O)N[C@@H](CCCCN)C(=O)N[C@@H](CCCCN)C(=O)N[C@@H](CC(C)C)C(=O)N[C@@H](CCC(=O)O)C(=O)N[C@@H](CCC(=O)O)C(=O)N[C@@H](CO)C(=O)N[C@@H](Cc1ccc(O)cc1)C(=O)N[C@H](C(=O)N[C@@H](CC(=O)O)C(=O)N[C@@H](CC(C)C)C(=O)N[C@@H](CCCCN)C(=O)N[C@@H](CCC(=O)O)C(=O)N[C@@H](CC(C)C)C(=O)NCC(=O)N[C@@H](CO)C(=O)NCC(=O)NCCOCCOCCOCCOCCC(=O)N[C@@H](CSCC(=O)O[C@H]1CC[C@@]2(C)C(=CC[C@H]3[C@@H]4CC[C@H]([C@H](C)CCCC(C)C)[C@@]4(C)CC[C@@H]32)C1)C(N)=O)[C@@H](C)CC` [EK1C3], for which the “Fold more potent than EK1C1, SARS-CoV-2 S-mediated cell–cell fusion” value on SARS-CoV-2 S protein was 4 fold. The compound also yielded an IC50 in the assay with SARS-CoV-2 PsV of 86.4 nM.
Take `CCCCCCCCCCCCCCCC(=O)SC[C@H](NC(=O)CCOCCOCCOCCOCCNC(=O)[C@H](CC(C)C)NC(=O)[C@H](CCC(=O)O)NC(=O)[C@H](CCCCN)NC(=O)[C@H](CC(C)C)NC(=O)[C@H](CC(=O)O)NC(=O)[C@@H](NC(=O)[C@H](Cc1ccc(O)cc1)NC(=O)[C@H](CO)NC(=O)[C@H](CCC(=O)O)NC(=O)[C@H](CCC(=O)O)NC(=O)[C@H](CC(C)C)NC(=O)[C@H](CCCCN)NC(=O)[C@H](CCCCN)NC(=O)[C@@H](NC(=O)[C@H](C)NC(=O)[C@H](CCC(=O)O)NC(=O)[C@H](CCC(=O)O)NC(=O)[C@H](CC(C)C)NC(=O)[C@H](CCCCN)NC(=O)[C@H](CCCCN)NC(=O)[C@H](CCSC)NC(=O)[C@H](CCC(=O)O)NC(=O)[C@H](Cc1ccc(O)cc1)NC(=O)[C@H](CCC(=O)O)NC(=O)[C@H](CC(C)C)NC(=O)[C@H](CC(=O)O)NC(=O)[C@H](CC(C)C)NC(=O)[C@H](Cc1ccccc1)NC(=O)[C@@H](NC(=O)[C@@H](NC(=O)[C@H](CC(N)=O)NC(=O)[C@@H](NC(=O)[C@H](CCC(N)=O)NC(=O)[C@H](CC(=O)O)NC(=O)[C@H](CC(C)C)NC(=O)[C@@H](N)CO)[C@@H](C)CC)C(C)C)[C@@H](C)O)[C@@H](C)CC)[C@@H](C)CC)C(N)=O` [EK1P] (H-SLDQINVTFLDLEYEMKKLEEAIKKLEESYIDLKEL[PEG4]C(Palmitoyl)-NH2): the “Inhibition of SARS-CoV-2 mediated cell–cell fusion at 2.5 μM” value on SARS-CoV-2 S protein is on record as “completely inhibit”.
On to “LKVLLYEEFKLLESLIMEILEYQKDSDIKENAEDTK [EK1-scrambled, reference compound]”, for which the “Inhibitory activity on SARS-CoV-2 S-mediated cell–cell fusion” value at SARS-CoV-2 S protein is reported as “no inhibitory activity”. Besides, the “Inhibitory activity on SHC014 S-mediated cell–cell fusion” value in the assay with SHC014 S protein was “no inhibitory activity”. Moreover, the “Inhibitory activity on SARS-CoV S-mediated cell–cell fusion” value on SARS-CoV S protein is given as “no inhibitory activity”. The “Inhibitory activity on MERS-CoV S-mediated cell–cell fusion” value at MERS-CoV S protein is on record as “no inhibitory activity”. Moreover, on HCoV-OC43 S protein, the “Inhibitory activity on HCoV-OC43 S-mediated cell–cell fusion” value was “no inhibitory activity”. The “Inhibitory activity on HCoV-229E S-mediated cell–cell fusion” value on HCoV-229E S protein is “no inhibitory activity”. Besides, on HCoV-NL63 S protein, the “Inhibitory activity on HCoV-NL63 S-mediated cell–cell fusion” value is “no inhibitory activity”. Also, the “Inhibitory activity on Rs3367 S-mediated cell–cell fusion” value with Rs3367 S protein is on record as “no inhibitory activity”. Also, the “Inhibitory activity on WIV1 S-mediated cell–cell fusion” value with WIV1 S protein was “no inhibitory activity”.
As for `CC[C@H](C)[C@H](NC(=O)[C@H](C)NC(=O)[C@H](CCC(=O)O)NC(=O)[C@H](CCC(=O)O)NC(=O)[C@H](CC(C)C)NC(=O)[C@H](CCCCN)NC(=O)[C@H](CCCCN)NC(=O)[C@H](CCSC)NC(=O)[C@H](CCC(=O)O)NC(=O)[C@H](Cc1ccc(O)cc1)NC(=O)[C@H](CCC(=O)O)NC(=O)[C@H](CC(C)C)NC(=O)[C@H](CC(=O)O)NC(=O)[C@H](CC(C)C)NC(=O)[C@H](Cc1ccccc1)NC(=O)[C@@H](NC(=O)[C@@H](NC(=O)[C@H](CC(N)=O)NC(=O)[C@@H](NC(=O)[C@H](CCC(N)=O)NC(=O)[C@H](CC(=O)O)NC(=O)[C@H](CC(C)C)NC(=O)[C@@H](N)CO)[C@@H](C)CC)C(C)C)[C@@H](C)O)C(=O)N[C@@H](CCCCN)C(=O)N[C@@H](CCCCN)C(=O)N[C@@H](CC(C)C)C(=O)N[C@@H](CCC(=O)O)C(=O)N[C@@H](CCC(=O)O)C(=O)N[C@@H](CO)C(=O)N[C@@H](Cc1ccc(O)cc1)C(=O)N[C@H](C(=O)N[C@@H](CC(=O)O)C(=O)N[C@@H](CC(C)C)C(=O)N[C@@H](CCCCN)C(=O)N[C@@H](CCC(=O)O)C(=O)N[C@@H](CC(C)C)C(=O)NCCOCCOCCOCCOCCC(=O)N[C@@H](CSCC(=O)O[C@H]1CC[C@@]2(C)C(=CC[C@H]3[C@@H]4CC[C@H]([C@H](C)CCCC(C)C)[C@@]4(C)CC[C@@H]32)C1)C(N)=O)[C@@H](C)CC` [EK1C] (H-SLDQINVTFLDLEYEMKKLEEAIKKLEESYIDLKEL[PEG4]C(X1)-NH2), the “Inhibition of SARS-CoV-2 mediated cell–cell fusion at 2.5 μM” value at SARS-CoV-2 S protein is listed as “completely inhibit”. In addition, in the assay on SARS-CoV-2 PsV, the IC50 was 139 nM.

Broadly, the IC50 is the concentration at which inhibition is half-maximal. A higher IC50 goes with a need for much substance.
